Experimental data from patent US6706880B2 (Research Triangle Institute, priority 1990, dated 2004).
Where a name gives a salt, the structure may show the parent alone. Read-outs that look alike come from different tables or passages of the source.

What was measured:
dopamine transporter = dopamine transporter (UniProt P23977); assay type: binding
From the text: (§1) Illustrative in vitro assays for binding are described in Boja et al Ann. NY Acad. Sci. 654:282-291 (1992), which is incorporated herein by reference in its entirety. […] Alternatively, the compounds may be analyzed by their ability to inhibit reuptake of a labelled neurotransmitter in a sample, in particular, in synaptosomes.

serotonin transporter = biological target: T1, serotonin transporter (Rattus norvegicus, UniProt P31652); assay: Inhibition of [3H]paroxetine radioligand binding at the serotonin transporter
T1 construct: from tissue
From the text: as §1

[1] = biological target: norepinephrine transporter (UniProt Q9WTR4); assay: Inhibition of [3H]nisoxetine radioligand binding at the norepinephrine transporter
From the text: as §1

[2] = read-out: IC50 DA [3H]-WIN 35,428, Table IV
[3] = IC50 5-HT [3H]-paroxetine, Table IV
[4] = read-out: IC50 NE [3H]-nisoxetine, Table IV
[5] = IC50 5-HT [3H]-paroxatine, Table II
[6] = read-out: IC50 NE [3H]-nisoxetine, Table II
[7] = 5-HT=[3H] paroxetine, read-out: 5-HT IC50 for inhibition of radioligand binding
[8] = read-out: DA IC50 for inhibition of radioligand binding, DA=[3H]WIN 35,428
[9] = read-out: NEN IC50 for inhibition of radioligand binding, NEN=[3H] nisoxetine
[10] = 5-HT IC50 for inhibition of radioligand binding, 5-HT=[3H] paroxetine

T1 sequence (P31652 whole entry): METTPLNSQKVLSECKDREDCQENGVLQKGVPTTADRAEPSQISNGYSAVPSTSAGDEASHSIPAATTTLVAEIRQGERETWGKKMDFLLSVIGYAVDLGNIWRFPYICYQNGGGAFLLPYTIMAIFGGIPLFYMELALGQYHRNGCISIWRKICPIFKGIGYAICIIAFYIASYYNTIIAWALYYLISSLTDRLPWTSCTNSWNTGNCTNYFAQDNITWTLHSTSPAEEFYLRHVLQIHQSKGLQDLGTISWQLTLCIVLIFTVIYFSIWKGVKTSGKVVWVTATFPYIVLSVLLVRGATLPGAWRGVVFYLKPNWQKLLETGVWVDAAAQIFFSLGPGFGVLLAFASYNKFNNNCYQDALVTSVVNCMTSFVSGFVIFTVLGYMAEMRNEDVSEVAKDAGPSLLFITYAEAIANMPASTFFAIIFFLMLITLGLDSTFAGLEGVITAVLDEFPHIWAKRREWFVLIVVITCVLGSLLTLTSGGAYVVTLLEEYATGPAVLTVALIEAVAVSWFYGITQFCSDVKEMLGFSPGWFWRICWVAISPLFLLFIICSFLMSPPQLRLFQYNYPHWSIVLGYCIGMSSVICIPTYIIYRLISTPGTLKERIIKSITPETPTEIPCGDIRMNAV

Row | SMILES | IC50 (dopamine transporter; [2]) [nM] | IC50 (serotonin transporter; [3]) [nM] | IC50 [1, 4] [nM] | IC50 (dopamine transporter; [8]) [nM] | IC50 [1, 9] [nM] | IC50 (serotonin transporter; [10]) [nM] | also measured
1 | CN1[C@H]2CC[C@@H]1[C@@H](CO)[C@@H](c1ccc(Cl)cc1)C2 [RTI-93] | 1.53 ± 0.15 | 204 ± 16 | 43.8 ± 6.4 |  |  |  | 
2 | CN1[C@H]2CC[C@@H]1[C@@H](CO)[C@@H](c1ccc(Br)cc1)C2 [RTI-99] | 1.49 ± 0.06 | 51 ± 4.6 |  |  |  |  | 
3 | CN1[C@H]2CC[C@@H]1[C@@H](CO)[C@@H](c1ccc(F)cc1)C2 [RTI-100] | 47 ± 4.6 | 4740 ± 335 |  |  |  |  | 
4 | CN1[C@H]2CC[C@@H]1[C@@H](C(=O)O)[C@@H](c1ccc(I)cc1)C2 [RTI-102] | 474 ± 57 | 1930 ± 120 | 43400 |  |  |  | 
5 | CN1[C@H]2CC[C@@H]1[C@@H](C(=O)O)[C@@H](c1ccc(Br)cc1)C2 [RTI-103] | 278 ± 43 | 3070 ± 208 | 17400 |  |  |  | 
6 | CN1[C@H]2CC[C@@H]1[C@@H](C(=O)O)[C@@H](c1ccc(F)cc1)C2 [RTI-104] | 2740 ± 141 | > 100 | > 100000 |  |  |  | 
7 | Cc1ccc([C@H]2C[C@@H]3CC[C@H]([C@H]2CN)N3C)cc1 [RTI-131] | 10.5 ± 1.7 | 855 ± 52 | 120 ± 20 |  |  |  | 
8 | Cc1ccc([C@H]2C[C@@H]3CC[C@H]([C@H]2C#N)N3C)cc1 [RTI-158, 3β-(4-Methylphenyl)-tropane-2β-nitrile Hydrochloride] | 57 ± 7.3 | 5100 ± 315 | 1620 ± 136 |  |  |  | 
9 | CN1[C@H]2CC[C@@H]1[C@@H](c1nnn[nH]1)[C@@H](c1ccc(Cl)cc1)C2 [RTI-163, 3β-(4-Chlorophenyl)-tropane-2β-tetrazole] |  |  |  |  |  |  | IC50 (serotonin transporter; [5]): 5460 ± 64 nM; IC50 [1, 6]: 17400 nM
10 | CNC[C@H]1[C@@H](c2ccc(C)cc2)C[C@@H]2CC[C@H]1N2C [RTI-164] | 13.6 ± 2.03 | 2250 ± 94 | 280 ± 19 |  |  |  | 
11 | Cc1cc([C@H]2[C@@H](c3ccc(Cl)cc3)C[C@@H]3CC[C@H]2N3C)on1 [RTI-165, 3β-(4-Chlorophenyl)-2β-(3-methylisoxazol-5-yl)tropane Hydrochloride] |  |  |  |  |  |  | IC50 (dopamine transporter; read-out: IC50 DA [3H]-WIN 35,428, Table II): 0.59 ± 0.04 nM; IC50 (serotonin transporter; [5]): 572 ± 58 nM; IC50 [1, 6]: 181 ± 12 nM
12 | COC(=O)C1C(c2ccc(Cl)cc2)CC2CCC1N2C (stereo not shown) [RTI-4229-31] |  |  |  |  |  |  | IC50 (serotonin transporter; [7]): 44.5 nM
13 | COC(=O)C1C(c2ccc(C)cc2)CC2CCC1N2C (stereo not shown) [RTI-4229-32] |  |  |  | 1.71 | 60 |  | 
14 | COC(=O)C1C(c2ccc(Br)cc2)CC2CCC1N2C (stereo not shown) [RTI-4229-51] |  |  |  | 1.69 |  | 240 | 
15 | COC(=O)C1C(c2ccc(I)cc2)CC2CCC1N2C (stereo not shown) [RTI-4229-55] |  |  |  | 1.26 | 36 |  | IC50 (serotonin transporter; [7]): 4.21 nM
16 | CN1C2CCC1C(C(=O)OCCc1ccc(N)c(I)c1)C(c1ccc(Cl)cc1)C2 (stereo not shown) [RTI-4229-77] |  |  |  | 2.51 | 2250 |  | 
17 | CCc1ccc(C2CC3CCC(C2C(=O)OC)N3C)cc1 (stereo not shown) [RTI-4229-83] |  |  |  | 55 |  |  | IC50 (serotonin transporter; [7]): 28.4 nM
18 | Cc1noc(C2C(c3ccccc3)CC3CCC2N3C)n1 (stereo not shown) [RTI-4229-87] |  |  |  | 204 | 35800 | 28400 | 
19 | COC(=O)C1C(c2ccc(F)c(C)c2)CC2CCC1N2C (stereo not shown) [RTI-4229-96] |  |  |  | 2.95 | 520 | 76 | 
20 | COC(=O)[C@@H]1C2CCC(C[C@@H]1c1ccc(N)c(Br)c1)N2C (stereo partly shown) [RTI-4229-97] |  |  |  | 3.91 | 282 | 181 | 
21 | COC(=O)[C@@H]1C2CCC(C[C@@H]1c1ccc(I)cc1)N2 (stereo partly shown) [RTI-4229-98] |  |  |  | 0.69 | 11 | 0.36 | 
22 | CN1C2CCC1C(CO)C(c1ccc(I)cc1)C2 (stereo not shown) [RTI-4229-101] | 2.2 ± 0.19 | 26 ± 3.2 |  | 2.2 |  | 26 | 
23 | CC(=O)OC[C@@H]1C2CCC(C[C@@H]1c1ccc(Cl)cc1)N2C (stereo partly shown) [RTI-4229-105] | 1.8 ± 0.05 | 143 ± 25 | 127 ± 5.9 | 1.6 | 127 | 143 | 
24 | CN1C2CCC1[C@@H](CCl)[C@@H](c1ccc(Cl)cc1)C2 (stereo partly shown) [RTI-4229-108] | 2.64 ± 0.31 | 98 ± 8.7 | 129 ± 15 | 2.64 | 129 | 98 | 
25 | COC(=O)C1C2CCC(CC1c1ccc(Cl)cc1)N2 (stereo not shown) [RTI-4229-110] |  |  |  | 0.62 | 5.45 |  | IC50 (serotonin transporter; [7]): 4.13 nM
26 | COC(=O)[C@@H]1C2CCC(C[C@@H]1c1ccc(Cl)c(Cl)c1)N2C (stereo partly shown) [RTI-4229-111] |  |  |  | 0.79 | 18 | 3.13 | 
27 | COC(=O)[C@@H]1C2CCC(C[C@@H]1c1ccc(Cl)c(C)c1)N2C (stereo partly shown) [RTI-4229-112] |  |  |  | 0.82 | 36.2 | 10.5 | 
28 | CN1C2CCC1C(C(=O)Oc1ccccc1)C(c1ccc(Cl)cc1)C2 (stereo not shown) [RTI-4229-113] |  |  |  | 1.98 | 2960 |  | IC50 (serotonin transporter; [7]): 2330 nM
